Experimental data reported in patent publication US20050118290A1, “Compositions and method for treatment of steroid/nuclear receptor-mediated diseases” (University of Singapore, priority 2003, published 2005).

Experiments:
Type in all cases: cell-based
[1] = molecular target: T1, Glucocorticoid Receptor (Homo sapiens, UniProt P04150); experiment: GR (ARE)2-Luc luciferase reporter gene assay; conditions: HQ extract 0 ×10^−6 g/mL (hormone only)
T1 construct: expressed in transfected cells
T1 sequence (P04150 1-777): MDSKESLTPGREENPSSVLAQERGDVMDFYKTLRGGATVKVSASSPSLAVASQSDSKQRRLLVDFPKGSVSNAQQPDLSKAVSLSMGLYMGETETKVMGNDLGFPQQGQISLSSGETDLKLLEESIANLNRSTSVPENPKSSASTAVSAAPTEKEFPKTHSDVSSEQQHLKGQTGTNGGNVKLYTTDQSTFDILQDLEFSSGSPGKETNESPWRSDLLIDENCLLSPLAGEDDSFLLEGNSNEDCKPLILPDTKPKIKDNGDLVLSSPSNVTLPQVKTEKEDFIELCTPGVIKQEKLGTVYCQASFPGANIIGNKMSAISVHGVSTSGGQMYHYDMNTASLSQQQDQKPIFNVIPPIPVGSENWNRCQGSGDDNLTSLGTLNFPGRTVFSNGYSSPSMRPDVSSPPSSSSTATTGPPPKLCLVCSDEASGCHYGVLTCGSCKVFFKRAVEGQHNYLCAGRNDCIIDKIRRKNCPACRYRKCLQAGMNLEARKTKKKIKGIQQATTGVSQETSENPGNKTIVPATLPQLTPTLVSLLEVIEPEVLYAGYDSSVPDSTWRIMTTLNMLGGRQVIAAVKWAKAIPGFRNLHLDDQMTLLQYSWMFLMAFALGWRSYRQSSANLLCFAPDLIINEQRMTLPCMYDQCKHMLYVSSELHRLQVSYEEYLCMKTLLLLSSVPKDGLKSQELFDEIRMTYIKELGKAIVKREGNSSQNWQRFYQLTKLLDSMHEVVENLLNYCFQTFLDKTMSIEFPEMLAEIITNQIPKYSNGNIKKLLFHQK
Protocol: (§1) The capacity of HQ extract to activate other steroid receptors, namely AR, PR, GR, ERα and ERβ was examined. […] The (ARE)2-Luc plasmid consist of two repeats of Androgen Response Element (ARE) cloned upstream of the Luciferase Reporter gene in a pGL3-Basic vector (Promega).
(§2) AR, PR, GR and ERα and […] were determined by comparing luciferase activity in test cells with control cells exposed to vehicle (i.e., ethanol or methanol) only, analogous to the determination of PPAR activity as described in the previous examples.

[2] = molecular target: T2, PPARγ (Homo sapiens, UniProt P37231); experiment: Chimeric Gal4DBD-PPARγLBD receptor / UASg-luciferase reporter gene assay in HeLa cells
T2 construct: expressed in transfected cells; host or cells: HeLa
T2 sequence (P37231 238-503 limits assumed): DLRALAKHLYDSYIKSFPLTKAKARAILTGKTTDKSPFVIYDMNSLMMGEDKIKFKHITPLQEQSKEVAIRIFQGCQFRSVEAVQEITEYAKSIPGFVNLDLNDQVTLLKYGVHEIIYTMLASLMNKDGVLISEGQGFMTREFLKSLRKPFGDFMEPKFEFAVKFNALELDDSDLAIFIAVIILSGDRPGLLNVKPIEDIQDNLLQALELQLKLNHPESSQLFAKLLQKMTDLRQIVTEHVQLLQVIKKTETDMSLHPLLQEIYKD
From the text: (§3) In an example of such a reporter gene assay, a plasmid containing chimeric Ga14DBD-PPARLBD receptor cDNA was constructed by excising the ligand binding domain (LBD) of full length PPARγ and PPARα and ligating the resulting fragments in frame to the Ga14-DNA binding domain (DBD) of Saccharomyces cerevisiae in a pM vector (Clontech). Specifically, to construct Ga14DBD-PPARγLBD plasmid, pSG5 expression vector (Stratagene) containing full length PPARγ was excised with Rsa I and blunt ligated to Hind III site of pMGa14DBD expression plasmid (Clontech). To construct Ga14DBD-PPARαLBD plasmid, pSG5 expression vector (Stratagene) containing full length PPARα was excised with BstU I and BamH I and blunt-end ligated in frame to BamH I site of pMGa14DBD expression plasmid (Clontech). […] Ga14 DBD binds very strongly to the exogenous UASg promoter, thereby giving rise to a sensitive and specific assay. To measure PPARγ and PPARα agonist activity, HeLa cells were grown in 24-well microtiter plates and then transiently co-transfected with the two plasmids (chimeric PPAR receptor and UASg reporter gene) using Lipofectamine (Invitrogen). […] Concurrently, cells exposed to known PPAR ligands served as positive controls. Replicate wells, exposed to the vehicle solvent (i.e., ethanol or methanol) in which herbal extracts were dissolved, were used as negative controls. After the 40 hr incubation period, cells were rinsed with phosphate buffered saline (PBS), lysis buffer was added, and cell lysates were collected for measurement of luciferase activity using a luminometer. […] All data points are in triplicate. The data points represent the mean of triplicate wells. Luciferase activity in such an assay accurately reflects the activity of any ligands on PPARγ or PPARα.

[3] = molecular target: T3, human estrogen receptor ERβ (Homo sapiens, UniProt Q92731); experiment: ERβ MMTV-ERE-LUC reporter gene assay in HeLa cells
T3 construct: expressed in transfected cells; host or cells: HeLa
Protocol: (§4) ERα and ERβ activity were assayed using plasmids encoding either ERα or ERβ co-transfected with the ERE-LUC reporter gene. To assay estrogen receptor agonist activity, HeLa cells were transiently co-transfected with two plasmids (Tcherepanova, et al., 2000) using Lipofectamine. The first plasmid comprised DNA encoding human estrogen receptor (either ERα or ERβ), and the second plasmid comprised an estrogen-driven reporter system comprising: a luciferase reporter gene (LUC) whose transcription is under the control of upstream regulatory elements comprising 4 copies of the vitellogenin estrogen response element (ERE) cloned into the Mouse Mammary Tumor Virus (MMTV) promoter (the full name of the reporter system being ‘MMTV-ERE-LUC’).
as §2

[4] = molecular target: T4, Progesterone Receptor (Homo sapiens, UniProt P06401); experiment: PR (ARE)2-Luc luciferase reporter gene assay; conditions: with progesterone 10×10^−6M
T4 construct: expressed in transfected cells; host or cells: HeLa (named for the formononetin and daidzein experiments)
T4 sequence (P06401 1-933): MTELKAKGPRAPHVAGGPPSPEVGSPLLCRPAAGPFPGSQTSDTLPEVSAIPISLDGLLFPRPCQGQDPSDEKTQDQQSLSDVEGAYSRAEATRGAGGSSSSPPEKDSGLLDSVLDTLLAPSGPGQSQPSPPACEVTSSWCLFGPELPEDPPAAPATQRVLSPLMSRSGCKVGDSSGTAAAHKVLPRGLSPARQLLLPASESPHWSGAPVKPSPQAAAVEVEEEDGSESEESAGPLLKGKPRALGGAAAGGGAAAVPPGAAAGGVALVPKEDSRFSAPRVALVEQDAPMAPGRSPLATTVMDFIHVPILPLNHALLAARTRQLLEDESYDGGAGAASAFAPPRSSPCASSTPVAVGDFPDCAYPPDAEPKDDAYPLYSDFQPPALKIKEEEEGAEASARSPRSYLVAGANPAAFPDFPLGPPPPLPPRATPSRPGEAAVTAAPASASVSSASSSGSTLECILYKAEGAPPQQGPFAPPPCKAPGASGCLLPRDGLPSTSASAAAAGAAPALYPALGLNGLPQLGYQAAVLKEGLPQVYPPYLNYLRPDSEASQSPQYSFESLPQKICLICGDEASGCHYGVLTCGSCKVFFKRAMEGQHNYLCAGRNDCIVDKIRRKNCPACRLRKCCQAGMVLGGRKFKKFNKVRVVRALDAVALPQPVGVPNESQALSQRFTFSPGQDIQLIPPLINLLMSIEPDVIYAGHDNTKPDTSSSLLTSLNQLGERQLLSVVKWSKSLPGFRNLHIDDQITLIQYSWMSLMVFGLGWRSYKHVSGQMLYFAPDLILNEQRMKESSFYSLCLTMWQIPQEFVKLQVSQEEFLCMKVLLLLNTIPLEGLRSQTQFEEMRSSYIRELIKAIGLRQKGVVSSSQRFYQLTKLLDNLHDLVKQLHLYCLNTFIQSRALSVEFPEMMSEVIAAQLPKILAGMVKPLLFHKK
Protocol: as §1, §2

[5] = molecular target: T5, human estrogen receptor ERα (Homo sapiens, UniProt P03372); experiment: ERα MMTV-ERE-LUC reporter gene assay in HeLa cells
T5 construct: expressed in transfected cells; host or cells: HeLa
T5 sequence (P03372 1-595): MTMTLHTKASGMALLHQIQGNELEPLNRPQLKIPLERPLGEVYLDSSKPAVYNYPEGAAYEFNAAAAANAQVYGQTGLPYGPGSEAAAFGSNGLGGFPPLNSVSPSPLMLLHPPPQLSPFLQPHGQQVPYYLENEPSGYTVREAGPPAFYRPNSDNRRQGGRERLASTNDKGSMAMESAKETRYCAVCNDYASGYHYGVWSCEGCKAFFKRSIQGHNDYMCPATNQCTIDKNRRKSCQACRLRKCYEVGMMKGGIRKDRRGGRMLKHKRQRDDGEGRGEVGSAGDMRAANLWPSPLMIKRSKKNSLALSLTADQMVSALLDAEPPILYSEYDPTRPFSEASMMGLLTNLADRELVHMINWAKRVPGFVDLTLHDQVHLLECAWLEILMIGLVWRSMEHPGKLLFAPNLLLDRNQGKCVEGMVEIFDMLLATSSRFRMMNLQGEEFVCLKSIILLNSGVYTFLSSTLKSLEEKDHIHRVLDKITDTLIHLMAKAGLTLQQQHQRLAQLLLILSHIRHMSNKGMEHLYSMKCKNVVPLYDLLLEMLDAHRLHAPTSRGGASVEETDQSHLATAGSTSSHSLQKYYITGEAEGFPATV
Protocol: as §4, §2

[6] = molecular target: T6, PPARα (Homo sapiens, UniProt Q07869); experiment: Chimeric Gal4DBD-PPARαLBD receptor / UASg-luciferase reporter gene assay in HeLa cells
T6 construct: expressed in transfected cells; host or cells: HeLa
T6 sequence (Q07869 239-466 limits assumed): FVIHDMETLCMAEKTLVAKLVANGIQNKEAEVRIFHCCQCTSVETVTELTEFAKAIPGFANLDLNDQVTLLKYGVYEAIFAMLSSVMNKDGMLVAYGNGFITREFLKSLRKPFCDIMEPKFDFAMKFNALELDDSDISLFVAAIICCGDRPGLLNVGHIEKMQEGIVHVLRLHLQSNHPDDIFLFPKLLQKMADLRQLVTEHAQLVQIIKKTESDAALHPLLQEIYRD
From the text: as §3

T3 sequence (Q92731 whole entry): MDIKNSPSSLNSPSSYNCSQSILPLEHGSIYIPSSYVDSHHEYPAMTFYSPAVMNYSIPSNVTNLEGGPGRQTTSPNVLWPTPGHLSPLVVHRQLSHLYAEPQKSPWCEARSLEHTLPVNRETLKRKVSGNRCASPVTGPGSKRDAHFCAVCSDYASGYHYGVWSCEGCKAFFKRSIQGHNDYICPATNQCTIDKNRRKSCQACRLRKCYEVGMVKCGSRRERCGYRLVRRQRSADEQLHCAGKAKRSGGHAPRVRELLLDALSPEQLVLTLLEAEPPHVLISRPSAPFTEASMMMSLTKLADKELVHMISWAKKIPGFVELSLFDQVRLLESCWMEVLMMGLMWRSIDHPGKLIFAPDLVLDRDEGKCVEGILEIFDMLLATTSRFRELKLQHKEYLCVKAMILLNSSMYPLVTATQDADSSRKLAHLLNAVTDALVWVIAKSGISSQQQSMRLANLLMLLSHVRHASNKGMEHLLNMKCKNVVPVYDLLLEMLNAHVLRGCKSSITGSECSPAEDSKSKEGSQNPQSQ

increase of PPARγ activity, up to ([2]; Table 8) | ERβ activity comparable to % maximal activity of Estradiol ([3]; 30×10^−6 g/ml) [%] | increase of the activity of maximal doses of PR agonist [4] [fold] | increase of the activity of maximal doses of estradiol on ERα ([5]; with estradiol 1×10^−9M) [fold] | increase of PPARα activity, up to ([6]; Table 8) [fold] | increase of the activity of maximal doses of PPARα agonist ([6]; with WY14643 30×10^−6M) [fold] | SMILES | Luciferase activity (Fold ± SE) Glucocorticoid Receptor/Hydrocortisone (1 × 10^−9 M) [1] [Fold] | PPARγ activity when added to pioglitazone compared with pioglitazone alone ([2]; 3 to 30 ×10^−6 g/mL + pioglitazone 30×10^−6M) | effect on ERβ activity of estradiol ([3]; 1 to 30×10^−6 g/mL + estradiol 1×10^−9M) | ERα activity comparable to % maximal activity of Estradiol ([5]; 30×10^−6 g/ml)
 |  |  |  |  |  | C[C@]12CCC(=O)C=C1CC[C@@H]1[C@@H]2[C@@H](O)C[C@@]2(C)[C@H]1CC[C@]2(O)C(=O)CO [Hydrocortisone, hydrocortisone] | 11014 ± 285 |  |  | 
up to 6 fold | ~400 | 1.8 | 3.2 | ≤ 10 | 4.4 | COc1ccc(-c2coc3cc(O)ccc3c2=O)cc1 [formononetin, 7-Hydroxy-4′-methoxyisoflavone] |  | no different than that observed with pioglitazone alone | did not inhibit or augment the activity of estradiol alone | comparable to maximal activity of Estradiol
